From US20140162980A1, “NOVEL MICROBIOCIDAL DIOXIME ETHER DERIVATIVES” (SYNGENTA CROP PROTECTION LLC, priority 2010, published 2014)

Tested on: Puccinia recondita f. sp. tritici
Assay: Puccinia recondita f. sp. tritici / wheat / leaf disc preventative (brown rust)
Assay type: in vivo
Settings: foliar, wheat leaf segments cv Kanzler, inoculated 1 day after application, assessed 7-9 days after application, read-out: control of Puccinia recondita f. sp. tritici, preventative (percent disease control compared to untreated)
Procedure: Puccinia Recondita f. Sp. Tritici/Wheat/Leaf Disc Preventative (Brown Rust): Wheat leaf segments cultivated variety (cv) Kanzler were placed on agar in 24-well plates and sprayed with formulated test compound diluted in water at an application rate of 200 ppm. The leaf disks were inoculated with a spore suspension of the fungus 1 day after application. The inoculated leaf segments were incubated at 19° C. and 75% relative humidity under a light regime of 12/12 h (light/dark) in a climate cabinet and the activity of a compound was assessed as percent disease control compared to untreated when an appropriate level of disease damage appears in untreated check leaf segments (7-9 days after application).

Structure (SMILES)	pest or weed control at 200 ppm [%]
Cc1ccc2c(n1)/C(=N/OCC(C)(C)CO/N=C1\CCCc3c1nc1ccccc1c3C)CCC2 [P.38]	≥ 80
c1c2c(nc3c1CCC/C3=N\OCC1(CO/N=C3\CCCc4cc5c(nc43)CCCC5)CC1)CCCC2 [P.49]	≥ 80
Cc1ccc2c(n1)/C(=N/OCCCO/N=C1\CCCc3c(C)cc(C)nc31)CCC2 [P.30]	≥ 80
Cc1ccc2c(n1)/C(=N/OCCCO/N=C1\CCCc3c(C(F)F)cc(C)nc31)CCC2 [P.46]	≥ 80

Tested on: Blumeria graminis f. sp. tritici (Erysiphe graminis f. sp. tritici)
Assay: Blumeria graminis f. sp. tritici / wheat / leaf disc preventative (powdery mildew on wheat)
Assay type: in vivo
Settings: foliar, wheat leaf segments cv. Kanzler, inoculated 1 day after application, assessed 6-8 days after application, read-out: control of Blumeria graminis (percent disease control compared to untreated)
Procedure: Blumeria Graminis f. Sp. Tritici (Erysiphe Graminis f. Sp. Tritici)/Wheat/Leaf Disc Preventative (Powdery Mildew on Wheat):
Wheat leaf segments cv. Kanzler were placed on agar in a 24-well plate and sprayed with the formulated test compound diluted in water at an application rate of 200 ppm. The leaf disks were inoculated by shaking powdery mildew infected plants above the test plates 1 day after application. The inoculated leaf disks were incubated at 20° C. and 60% relative humidity under a light regime of 24 h darkness followed by 12 h/12 h (dark/light) in a climate chamber and the activity of a compound was assessed as percent disease control compared to untreated when an appropriate level of disease damage appears on untreated check leaf segments (6-8 days after application). The following compounds gave at least 80% control of Blumeria graminis: […]

Structure (SMILES)	pest or weed control at 200 ppm [%]
Cc1ccc2c(n1)/C(=N/OCC(C)(C)CO/N=C1\CCCc3c1nc1ccccc1c3C)CCC2 [P.38]	≥ 80
c1c2c(nc3c1CCC/C3=N\OCC1(CO/N=C3\CCCc4cc5c(nc43)CCCC5)CC1)CCCC2 [P.49]	≥ 80
Cc1ccc2c(n1)/C(=N/OCCCO/N=C1\CCCc3c(C)cc(C)nc31)CCC2 [P.30]	≥ 80
Cc1ccc2c(n1)/C(=N/OCCCO/N=C1\CCCc3c(C(F)F)cc(C)nc31)CCC2 [P.46]	≥ 80

Tested on: Pyrenophora teres
Assay: Pyrenophora teres / barley / leaf disc preventative (net blotch)
Assay type: in vivo
Settings: foliar, barley leaf segments cv Hasso, inoculated two days after application, assessed 5-7 days after application, read-out: control of Pyrenophora teres (disease control compared to untreated)
Procedure: Pyrenophora Teres/Barley/Leaf Disc Preventative (Net Blotch): Barley leaf segments cv Hasso are placed on agar in a 24-well plate and sprayed with formulated test compound diluted in water at an application rate of 200 ppm. The leaf segments are inoculated with a spore suspension of the fungus two days after application of the test solution. The inoculated leaf segments are incubated at 20° C. and 65% relative humidity under a light regime of 12/12 h (light/dark) in a climate cabinet and the activity of a compound is assessed as disease control compared to untreated when an appropriate level of disease damage appears in untreated check leaf segments (5-7 days after application).

Structure (SMILES)	pest or weed control at 200 ppm [%]
Cc1ccc2c(n1)/C(=N/OCC(C)(C)CO/N=C1\CCCc3c1nc1ccccc1c3C)CCC2 [P.38]	≥ 80
Cc1ccc2c(n1)/C(=N/OCCCO/N=C1\CCCc3c(C)cc(C)nc31)CCC2 [P.30]	≥ 80
Cc1ccc2c(n1)/C(=N/OCCCO/N=C1\CCCc3c(C(F)F)cc(C)nc31)CCC2 [P.46]	≥ 80

Tested on: Thanatephorus cucumeris (Rhizoctonia solani)
Assay: Thanatephorus cucumeris (Rhizoctonia solani) / liquid culture (foot rot, damping-off)
Assay type: cell-based
Settings: PDB potato dextrose broth, 24° C., 3-4 days after application, read-out: control of Thanatephorus cucumeris (inhibition of growth, photometrically)
Procedure: Thanatephorus Cucumeris (Rhizoctonia solani)/Liquid Culture (Foot Rot, Damping-Off): Mycelia fragments of a newly grown liquid culture of the fungus are directly mixed into nutrient broth (PDB potato dextrose broth). After placing a DMSO solution of the test compounds into a 96-well microtiter plate at an application rate 200 ppm, the nutrient broth containing the fungal material was added. The test plates were incubated at 24° C. and the inhibition of growth was determined photometrically 3-4 days after application.

Structure (SMILES)	inhibition at 200 ppm [%]
Cc1ccc2c(n1)/C(=N/OCC(C)(C)CO/N=C1\CCCc3c1nc1ccccc1c3C)CCC2 [P.38]	≥ 80
c1c2c(nc3c1CCC/C3=N\OCC1(CO/N=C3\CCCc4cc5c(nc43)CCCC5)CC1)CCCC2 [P.49]	≥ 80
Cc1ccc2c(n1)/C(=N/OCCCO/N=C1\CCCc3c(C)cc(C)nc31)CCC2 [P.30]	≥ 80

Tested on: Pythium ultimum
Assay: Pythium ultimum / liquid culture (seedling damping off)
Assay type: cell-based
Settings: Globisporangium ultimum, PDB potato dextrose broth, 24° C., 2-3 days after application, read-out: control of Pythium ultimum (inhibition of growth, photometrically)
Procedure: Pythium Ultimum/Liquid Culture (Seedling Damping Off): Mycelia fragments and oospores of a newly grown liquid culture of the fungus were directly mixed into nutrient broth (PDB potato dextrose broth). After placing a DMSO solution of test compound into a 96 well microtiter plate at an application rate 200 ppm, the nutrient broth containing the fungal mycelia/spore mixture was added. The test plates were incubated at 24° C. and the inhibition of growth was determined photometrically 2-3 days after application.

Structure (SMILES)	inhibition at 200 ppm [%]
Cc1ccc2c(n1)/C(=N/OCC(C)(C)CO/N=C1\CCCc3c1nc1ccccc1c3C)CCC2 [P.38]	≥ 80
Cc1ccc2c(n1)/C(=N/OCCCO/N=C1\CCCc3c(C)cc(C)nc31)CCC2 [P.30]	≥ 80
Cc1ccc2c(n1)/C(=N/OCCCO/N=C1\CCCc3c(C(F)F)cc(C)nc31)CCC2 [P.46]	≥ 80

Tested on: Phaeosphaeria nodorum (Septoria nodorum)
Assay: Phaeosphaeria nodorum (Septoria nodorum) / wheat / leaf disc preventative (glume blotch)
Assay type: in vivo
Settings: Parastagonospora nodorum, foliar, wheat leaf segments cv Kanzler, inoculated 2 days after application, assessed 5-7 days after application, read-out: control of Phaeosphaeria nodorum (percent disease control compared to untreated)
Procedure: Phaeosphaeria Nodorum (Septoria nodorum)/Wheat/Leaf Disc Preventative (Glume Blotch): Wheat leaf segments cv Kanzler were placed on agar in a 24-well plate and sprayed with formulated test compound diluted in water at an application rate of 200 ppm. The leaf disks are inoculated with a spore suspension of the fungus 2 days after application. The inoculated test leaf disks are incubated at 20° C. and 75% relative humidity under a light regime of 12/12 h (light/dark) in a climate cabinet and the activity of a compound is assessed as percent disease control compared to untreated when an appropriate level of disease damage appears in untreated check leaf disks (5-7 days after application).

Structure (SMILES)	pest or weed control at 200 ppm [%]
Cc1ccc2c(n1)/C(=N/OCC(C)(C)CO/N=C1\CCCc3c1nc1ccccc1c3C)CCC2 [P.38]	≥ 80
c1c2c(nc3c1CCC/C3=N\OCC1(CO/N=C3\CCCc4cc5c(nc43)CCCC5)CC1)CCCC2 [P.49]	≥ 80
Cc1ccc2c(n1)/C(=N/OCCCO/N=C1\CCCc3c(C)cc(C)nc31)CCC2 [P.30]	≥ 80
Cc1ccc2c(n1)/C(=N/OCCCO/N=C1\CCCc3c(C(F)F)cc(C)nc31)CCC2 [P.46]	≥ 80

Tested on: Alternaria solani
Assay: Alternaria solani / tomato / leaf disc (early blight)
Assay type: in vivo
Settings: foliar, tomato leaf disks cv. Baby, inoculated 2 days after application, assessed 5-7 days after application, read-out: control of Alternaria solani (percent disease control compared to untreated)
Procedure: Alternaria Solani/Tomato/Leaf Disc (Early Blight): Tomato leaf disks cv. Baby are placed on agar in multiwell plates (24-well format) and sprayed with the formulated test compound diluted in water at an application rate of 200 ppm. The leaf disks are inoculated with a spore suspension of the fungus 2 days after application. The inoculated leaf disks are incubated at 23° C./21° C.

Structure (SMILES)	pest or weed control at 200 ppm [%]
Cc1ccc2c(n1)/C(=N/OCC(C)(C)CO/N=C1\CCCc3c1nc1ccccc1c3C)CCC2 [P.38]	≥ 80
Cc1ccc2c(n1)/C(=N/OCCCO/N=C1\CCCc3c(C)cc(C)nc31)CCC2 [P.30]	≥ 80

Tested on: Magnaporthe grisea (Pyricularia oryzae)
Assay: whole plant or invertebrate
Assay type: in vivo
Settings: foliar, read-out: control of Magnaporthe grisea (percent disease control compared to untreated)

Structure (SMILES)	pest or weed control at 200 ppm [%]
Cc1ccc2c(n1)/C(=N/OCC(C)(C)CO/N=C1\CCCc3c1nc1ccccc1c3C)CCC2 [P.38]	≥ 80
c1c2c(nc3c1CCC/C3=N\OCC1(CO/N=C3\CCCc4cc5c(nc43)CCCC5)CC1)CCCC2 [P.49]	≥ 80
Cc1ccc2c(n1)/C(=N/OCCCO/N=C1\CCCc3c(C)cc(C)nc31)CCC2 [P.30]	≥ 80
Cc1ccc2c(n1)/C(=N/OCCCO/N=C1\CCCc3c(C(F)F)cc(C)nc31)CCC2 [P.46]	≥ 80

Tested on: Puccinia recondita f. sp. tritici
Assay: Puccinia recondita f. sp. tritici / wheat / leaf disc curative (brown rust)
Assay type: in vivo
Settings: foliar, 200 ppm applied 1 day after inoculation, wheat leaf segments cv Kanzler, assessed 6-8 days after application, read-out: control of Puccinia recondita f. sp. tritici, curative (percent disease control compared to untreated)
Procedure: Puccinia Recondita f. Sp. Tritici/Wheat/Leaf Disc Curative (Brown Rust): Wheat leaf segments cv Kanzler were placed on agar in 24-well plates. The leaf segments were inoculated with a spore suspension of the fungus. The plates were stored in darkness at 19° C. and 75% relative humidity. The formulated test compound diluted in water was applied at an application rate of 200 ppm 1 day after inoculation.

Structure (SMILES)	pest or weed control at 200 ppm [%]
Cc1ccc2c(n1)/C(=N/OCC(C)(C)CO/N=C1\CCCc3c1nc1ccccc1c3C)CCC2 [P.38]	≥ 80
Cc1ccc2c(n1)/C(=N/OCCCO/N=C1\CCCc3c(C)cc(C)nc31)CCC2 [P.30]	≥ 80
Cc1ccc2c(n1)/C(=N/OCCCO/N=C1\CCCc3c(C(F)F)cc(C)nc31)CCC2 [P.46]	≥ 80

Tested on: Sclerotinia sclerotiorum
Assay: Sclerotinia sclerotiorum / liquid culture (cottony rot)
Assay type: cell-based
Settings: PDB potato dextrose broth, 24° C., 3-4 days after application, read-out: control of Sclerotinia sclerotiorum (inhibition of growth, photometrically)
Procedure: Sclerotinia Sclerotiorum/Liquid Culture (Cottony Rot) Mycelia fragments of a newly grown liquid culture of the fungus are directly mixed into nutrient broth (PDB potato dextrose broth). After placing a (DMSO) solution of test compound into a microtiter plate at an application rate 200 ppm (96-well format) the nutrient broth containing the fungal material is added. The test plates are incubated at 24° C. and the inhibition of growth is determined photometrically 3-4 days after application.

Structure (SMILES)	inhibition at 200 ppm [%]
Cc1ccc2c(n1)/C(=N/OCC(C)(C)CO/N=C1\CCCc3c1nc1ccccc1c3C)CCC2 [P.38]	≥ 80
c1c2c(nc3c1CCC/C3=N\OCC1(CO/N=C3\CCCc4cc5c(nc43)CCCC5)CC1)CCCC2 [P.49]	≥ 80
Cc1ccc2c(n1)/C(=N/OCCCO/N=C1\CCCc3c(C(F)F)cc(C)nc31)CCC2 [P.46]	≥ 80

Tested on: Botryotinia fuckeliana (Botrytis cinerea)
Assay: Botryotinia fuckeliana (Botrytis cinerea) / liquid culture (gray mould)
Assay type: cell-based
Settings: Vogels broth, 24° C., 3-4 days after application, read-out: control of Botryotinia fuckeliana (inhibition of growth, photometrically)
Procedure: Botryotinia Fuckeliana (Botrytis cinerea)/Liquid Culture (Gray Mould): Conidia of the fungus from cryogenic storage were directly mixed into nutrient broth (Vogels broth). After placing a DMSO solution of test compound into a 96-well microtiter plate at an application rate 200 ppm, the nutrient broth containing the fungal spores was added. The test plates were incubated at 24° C. and the inhibition of growth was determined photometrically 3-4 days after application.

Structure (SMILES)	inhibition at 200 ppm [%]
Cc1ccc2c(n1)/C(=N/OCC(C)(C)CO/N=C1\CCCc3c1nc1ccccc1c3C)CCC2 [P.38]	≥ 80
c1c2c(nc3c1CCC/C3=N\OCC1(CO/N=C3\CCCc4cc5c(nc43)CCCC5)CC1)CCCC2 [P.49]	≥ 80
Cc1ccc2c(n1)/C(=N/OCCCO/N=C1\CCCc3c(C)cc(C)nc31)CCC2 [P.30]	≥ 80
Cc1ccc2c(n1)/C(=N/OCCCO/N=C1\CCCc3c(C(F)F)cc(C)nc31)CCC2 [P.46]	≥ 80

Tested on: Phytophthora infestans
Assay: whole plant or invertebrate
Assay type: in vivo
Settings: in Solanum lycopersicum, foliar, read-out: control of Phytophthora infestans (percent disease control compared to untreated)

Structure (SMILES)	pest or weed control at 200 ppm [%]
Cc1ccc2c(n1)/C(=N/OCC(C)(C)CO/N=C1\CCCc3c1nc1ccccc1c3C)CCC2 [P.38]	≥ 80
c1c2c(nc3c1CCC/C3=N\OCC1(CO/N=C3\CCCc4cc5c(nc43)CCCC5)CC1)CCCC2 [P.49]	≥ 80
Cc1ccc2c(n1)/C(=N/OCCCO/N=C1\CCCc3c(C)cc(C)nc31)CCC2 [P.30]	≥ 80

Tested on: Plasmopara viticola
Assay: whole plant or invertebrate
Assay type: in vivo
Settings: foliar, read-out: control of Plasmopara viticola (percent disease control compared to untreated)

Structure (SMILES)	pest or weed control at 200 ppm [%]
Cc1ccc2c(n1)/C(=N/OCC(C)(C)CO/N=C1\CCCc3c1nc1ccccc1c3C)CCC2 [P.38]	≥ 80
Cc1ccc2c(n1)/C(=N/OCCCO/N=C1\CCCc3c(C)cc(C)nc31)CCC2 [P.30]	≥ 80
